Where two headings read alike, the source gives them in different places.
Columns and labels:
HBV = experiment: Determination of anti-HBV activity in HepG2.2.15 cell (Experiment 2, HBV DNA in supernatant by qPCR); type: cell-based; conditions: Hepatitis B virus; HepG2.2.15 cells, HBV DNA in supernatant on the eighth day, qPCR; read-out: Experiment 2 Cell experiment EC50
Method: Experiment 2: Determination of Anti-HBV Activity in HepG2.2.15 Cell
(§1) Compound dilution. All the compounds for in vitro anti-HBV activity assay and cytotoxicity assay were 3-fold diluted into 8 concentrations. The final concentration of the tested compound was 30 μM, the final starting concentration of reference compound GLS4 was 1 μM, and the final concentration of DMSO was 0.5%.
HepG2.2.15 cell (4×10^4 cell/well) was inoculated into 96 well plate, and cultured overnight in 37° C., 5% CO2. On the second day, fresh culture medium containing different concentrations of the compound was added into the culture wells. On the fifth day, the old culture solution in the culture well was aspirated and fresh culture medium containing different concentrations of the compound was added.
On the eighth day, the supernatant in the culture well was collected for extraction of HBV DNA, and the content of DNA in the supernatant of HepG2.2.15 HBV was detected by qPCR. After the supernatant was collected, the medium and Cell-titer Glo reagent were added into the culture well, and the chemiluminescence value of each well was measured by microplate reader.
The activity calculation formula was as follows: Y=Bottom+(Top−Bottom)/(1+10^((LogIC50−X)*Hillslope));

C150 protein = target: T1, C150 protein (Hepatitis B virus genotype D subtype adw, UniProt P03147, C107A/C48A/C61A/R150C); experiment: In vitro anti-HBV nucleocapsid assembly activity test (Experiment 1, protein experiment); type: biochemical
T1 construct: purchased WuXi Apptec Co., Ltd
Method: Experiment 1: In Vitro Anti-HBV Nucleocapsid Assembly Activity Test
Main Reagents and Raw Materials:
C150 protein was expressed and purified by WuXi Apptec Co., Ltd.
BoDIPY® FL was purchased from Thermo Fisher Scientific.
Protein Fluorescent Label:
150 μL of 2% w/v skimmed milk was added into each well of 96-well plate, and incubated at room temperature for 2 hours. The skimmed milk was aspirated. The plate was washed with deionized water and dried, and stored at room temperature. C150 protein (3 mg per tube) was desalted with 5 ml Hitrap desalting column. The desalted C150 protein of each tube was added with 50 mM BoDIPY® FL Fluorescent Dye (20 μl), and incubated under 4° C. overnight in the dark after well mixed. Sephadex G-25 gel was used for filtration to remove fluorescent dyes that were not bounded onto C150. The C150 fluorescent labeling efficiency was calculated according to the following equation: [BoDIPY®FL]=A504/78,000 M^−1; [C150Bo]=(A280−[BoDIPY®FL]×1300 M^−1)/60,900 M^−1; Fluorescent Labeling Efficiency=[BoDIPY®FL]/[C150Bo];
The mother liquor of compound was diluted with DMSO to 6 mM, then diluted to 600 μM with 50 mM HEPES, and then further 3-fold diluted with 10 DMSO/50 mM HEPES to 8 concentrations.
C150Bo was diluted to 2 μM with 50 mM HEPES. 37.5 μL of C150Bo and 2.5 μL of compound at each concentration were added into a 96 well plate and well mixed, then incubated at room temperature for 15 minutes. 10 μl of 750 mM NaCl/50 mM HEPES were added into the each reaction well, and the final concentration of NaCl was 150 mM.
Into the control wells in the 0% protein group 10 μL of 50 mM HEPES was added, and the final concentration of NaCl was 0 mM.
Into the control wells in the 100% protein group 10 μL of 5 M/50 mM HEPES was added, and the final concentration of NaCl was 1 M.
The final concentration of DMSO was 0.5%, the maximum final concentration of the compound was 30 μM, and final concentration of C150Bo was 1.5 μM. The mixture was incubated at room temperature for 1 hour. Fluorescence signal was measured (excitation light was 485 nm; emission light was 535 nm).
Data Analysis % protein assembly=[1−(Sample fluorescence value−1 M NaCl fluorescence value)/(0 M NaCl fluorescence value−1 M NaCl fluorescence value)]×100.
IC50 value was calculated by prism software, and the equation was as follows: Y=Bottom+(Top−Bottom)/(1+10^((LogIC50−X)HillSlope));

[1] = Determination of cytotoxicity (Experiment 3, resazurin assay); type: cell-based; conditions: human; HepG2 cells, incubated for 4 days, resazurin assay; read-out: Experiment 3 Cytotoxicity CC50
Method: as §1, with “0.5%. Experiment 3: Determination of Cytotoxicity The cytotoxicity of the test compound was tested using HepG2 cells. The cells were incubated for 4 days in the presence of the test compound. Cell activity was assessed using the resazurin assay.” for “0.5%.”

[2] = fluorescently labeled C150 (C150Bo) 1.5 μM, 150 mM NaCl, 1 hour at room temperature, read-out: Experiment 1 Protein experiment IC50

T1 sequence (P03147 1-150 C48A/C61A/C107A/R150C): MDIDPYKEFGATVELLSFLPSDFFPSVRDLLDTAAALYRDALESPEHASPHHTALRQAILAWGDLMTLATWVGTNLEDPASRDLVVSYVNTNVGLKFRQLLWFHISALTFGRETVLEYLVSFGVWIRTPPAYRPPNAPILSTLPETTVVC

Compound | EC50 (HBV) [nM] | IC50 (C150 protein; [2]) [µM] | CC50 at 4 days [1] [µM] | IC50 (C150 protein) [µM]
C[C@@H](NS(=O)(=O)c1c(Cl)c(C(=O)Nc2ccc(F)c(F)c2)n2c1C=CCCC2)C(F)(F)F [Compound 50a] | 0.1 to 100 | 1 to 100 | > 30 | 
C[C@@H](NS(=O)(=O)c1c(Cl)c(C(=O)Nc2ccc(F)c(C#N)c2)n2c1C=CCCC2)C(F)(F)F [Compound 50b] | 0.1 to 100 |  | > 30 | > 100
C[C@@H](NS(=O)(=O)c1c(Cl)c(C(=O)Nc2ccc(F)c(F)c2)n2c1CCCCC2)C(F)(F)F [Compound 60a] | 0.1 to 100 | > 100 | > 30 | 
C[C@@H](NS(=O)(=O)c1c(Cl)c(C(=O)Nc2ccc(F)c(C#N)c2)n2c1CCCCC2)C(F)(F)F [Compound 60b] | 0.1 to 100 |  | > 30 | 1 to 100
CC(NS(=O)(=O)c1c2ncccc2c(C(=O)Nc2ccc(F)c(F)c2)n1C)C(F)(F)F (stereo not drawn) [Compound 70a] | 0.1 to 100 | > 100 | > 30 | 
CC(NS(=O)(=O)c1c2ncccc2c(C(=O)Nc2ccc(F)c(C#N)c2)n1C)C(F)(F)F (stereo not drawn) [Compound 70b] | 0.1 to 100 | > 100 | > 30 | 
C[C@@H](NS(=O)(=O)c1c2[nH]ccc2c(C(=O)Nc2ccc(F)c(F)c2)n1C)C(F)(F)F [Compound 80a] | 100 to 1000 | 1 to 100 | > 30 | 
CC(NS(=O)(=O)c1c2[nH]ccc2c(C(=O)Nc2ccc(F)c(C#N)c2)n1C)C(F)(F)F (stereo not drawn) [Compound 80b] | 100 to 1000 | 1 to 100 | > 30 | 
CC(NS(=O)(=O)c1c2[nH]ccc2c(C(=O)Nc2cc(F)nc(C#N)c2)n1C)C(F)(F)F (stereo not drawn) [Compound 80d] | 0.1 to 100 | 1 to 100 | > 30 | 
Cn1c(C(=O)Nc2cc(F)nc(C#N)c2)c2cc[nH]c2c1S(=O)(=O)NC1(C)COC1 [Compound 80f] | 0.1 to 100 | 1 to 100 | > 30 | 
C[C@@H](NS(=O)(=O)Nc1c(Cl)c(C(=O)Nc2ccc(F)c(F)c2)n2c1CCC2)C(F)(F)F [Compound 90a] | 0.1 to 100 | 1 to 100 | > 30 | 
CC(NS(=O)(=O)Nc1c(Cl)c(C(=O)Nc2ccnc(Cl)c2)n2c1CCC2)C(F)(F)F (stereo not drawn) [Compound 90b] | 0.1 to 100 | 1 to 100 | > 30 | 
CC(CO)NS(=O)(=O)Nc1c(Cl)c(C(=O)Nc2cc(F)nc(C#N)c2)n2c1CCC2 (stereo not drawn) [Compound 90f] | 0.1 to 100 | 1 to 100 | > 30 | 
Cc1c(NS(=O)(=O)NC2(C)COC2)c2n(c1C(=O)Nc1ccc(F)c(F)c1)CCC2 [Compound 90g] | 0.1 to 100 | 1 to 100 | > 30 | 
Cc1c(NS(=O)(=O)NC2(C)COC2)c2n(c1C(=O)Nc1cc(F)nc(C#N)c1)CCC2 [Compound 90h] | 0.1 to 100 | 1 to 100 | > 30 | 
CC(NC(=O)Nc1c(Cl)c(C(=O)Nc2ccnc(Cl)c2)n2c1CCC2)C(F)(F)F (stereo not drawn) [Compound 100b] | 0.1 to 100 |  | > 30 | 1 to 100
Cc1c(NC(=O)NC(C)C(F)(F)F)c2n(c1C(=O)Nc1ccnc(Cl)c1)CCC2 (stereo not drawn) [Compound 100d] | 0.1 to 100 |  | > 30 | 1 to 100
CC(CO)NC(=O)Nc1c(Cl)c(C(=O)Nc2cc(F)nc(C#N)c2)n2c1CCCC2 (stereo not drawn) [Compound 100p] | 0.1 to 100 | 1 to 100 | > 30 | 
CC(NC(=O)Nc1c(Cl)c(C(=O)Nc2ccnc(Cl)c2)n2c1CCCCC2)C(F)(F)F (stereo not drawn) [Compound 100q] | 0.1 to 100 | 1 to 100 | > 30 | 
Cc1c(NC(=O)NC2(C)COC2)c2n(c1C(=O)Nc1cc(F)nc(C#N)c1)CCCCC2 [Compound 100r] | 0.1 to 100 | 1 to 100 | > 30 | 

From patent US11591334B2, “Substituted pyrrolizines for the treatment of hepatitis B” (SHANGHAI LONGWOOD BIOPHARMACEUTICALS CO., LTD., priority 2017, dated 2023)
